Experimental data reported in ChEMBL document CHEMBL1201862, “PubChem BioAssay data set” (2004).
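Grown in 96-well plates, cells were treated for 48 hours with each compound at five concentrations. Insufficient inhibition: endpoint recorded as highest concentration tested. The concentration for 50% growth inhibition is given as GI50.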 The source made the active and inactive calls. Cut-off read from the data, not from the text of the source: active = GI50 up to about 1.1 µM and inactive = higher.

How the values were obtained:
Test in all cases: growth of human tumour cells (NCI), 48 h
MOLT-4 = system: MOLT-4
MDA-MB-231 = system: MDA-MB-231
SF-539 = system: SF-539
MDA-N = system: MDA-N
U-251 = system: U-251
HT-29 = system: HT-29
TK-10 = system: TK-10
SK-MEL-2 = system: SK-MEL-2
UACC-257 = system: UACC-257
EKVX = system: EKVX
SNB-19 = system: SNB-19
LOX IMVI = system: LOX IMVI
HL-60 = system: HL-60
CCRF-CEM = system: CCRF-CEM
HOP-62 = system: HOP-62
NCI/ADR-RES = system: NCI/ADR-RES
KM12 = system: KM12
UACC-62 = system: UACC-62
Hs-578T = system: Hs-578T
SR = system: SR

Compound	GI50 (MOLT-4)	GI50 (MDA-MB-231)	GI50 (SF-539)	GI50 (MDA-N)	GI50 (U-251)	GI50 (HT-29)	GI50 (TK-10)	GI50 (SK-MEL-2)	GI50 (UACC-257)	GI50 (EKVX)	GI50 (SNB-19)	GI50 (LOX IMVI)	GI50 (HL-60)	GI50 (CCRF-CEM)	GI50 (HOP-62)	GI50 (NCI/ADR-RES)	GI50 (KM12)	GI50 (UACC-62)	GI50 (Hs-578T)	GI50 (SR)
CN(C)c1ccc(C=c2c3ccccc3n3c2cc(-c2ccc(Cl)cc2)[n+]3C)cc1	0.147 µM (active)	0.217 µM (active)	0.228 µM (active)	0.327 µM (active)	0.0269 µM (active)	0.315 µM (active)	0.578 µM (active)	0.237 µM (active)	0.158 µM (active)	0.617 µM (active)	0.268 µM (active)	0.194 µM (active)	0.101 µM (active)	0.0649 µM (active)	0.406 µM (active)	6.41 µM (inactive)	0.105 µM (active)	0.291 µM (active)		
COc1cc(/C=N/NC(=O)c2c(Cl)c(Cl)c(Cl)c(Cl)c2-c2nc3ccccc3[nH]2)ccc1O	18 µM (inactive)		26.7 µM (inactive)	24 µM (inactive)		22.2 µM (inactive)		20.3 µM (inactive)	29.3 µM (inactive)	19.2 µM (inactive)	30.5 µM (inactive)	22.4 µM (inactive)	21.2 µM (inactive)	21.9 µM (inactive)	21.6 µM (inactive)	> 100 µM (inactive)	24.2 µM (inactive)	15.8 µM (inactive)	44 µM (inactive)	
CC1NC(/C(=C/c2ccccc2O)NC(=O)c2ccccc2)OC1=O (stereo not drawn)	> 50 µM (inactive)	> 50 µM (inactive)	11.5 µM (inactive)	4.05 µM (inactive)	> 50 µM (inactive)	> 50 µM (inactive)	> 50 µM (inactive)	> 50 µM (inactive)	> 50 µM (inactive)	30.4 µM (inactive)	> 50 µM (inactive)	> 50 µM (inactive)	23.3 µM (inactive)	> 50 µM (inactive)	16.1 µM (inactive)	> 50 µM (inactive)	4.74 µM (inactive)	> 50 µM (inactive)		2.52 µM (inactive)
CC(=O)/C(=C/NC(=S)c1ccncc1)C(=O)Nc1ccccc1C		> 100 µM (inactive)	> 100 µM (inactive)	> 100 µM (inactive)	> 100 µM (inactive)	> 100 µM (inactive)	> 100 µM (inactive)	> 100 µM (inactive)	> 100 µM (inactive)	> 100 µM (inactive)	> 100 µM (inactive)	> 100 µM (inactive)	> 100 µM (inactive)		> 100 µM (inactive)	> 100 µM (inactive)	> 100 µM (inactive)	> 100 µM (inactive)		
CC(C)(O)C1CC(=O)C(C)(C2C(O)CC3(C)C4CC=C5C(CCC(O)C5(C)C)C4(C)C(=O)CC23C)O1 (stereo not drawn)	> 100 µM (inactive)	> 100 µM (inactive)	> 100 µM (inactive)	> 100 µM (inactive)	> 100 µM (inactive)	> 100 µM (inactive)	> 100 µM (inactive)	> 100 µM (inactive)	> 100 µM (inactive)	> 100 µM (inactive)	> 100 µM (inactive)	> 100 µM (inactive)			> 100 µM (inactive)		> 100 µM (inactive)	> 100 µM (inactive)	> 100 µM (inactive)	
CC(=O)C1=C(C)N2C(=NC3=C(CCc4ccccc43)C2c2cccc(Br)c2)S1 (stereo not drawn)		> 100 µM (inactive)	> 100 µM (inactive)	> 100 µM (inactive)	> 100 µM (inactive)	22.1 µM (inactive)		> 100 µM (inactive)	84.1 µM (inactive)	11.4 µM (inactive)	> 100 µM (inactive)	76.4 µM (inactive)	25.8 µM (inactive)	69.7 µM (inactive)	> 100 µM (inactive)	> 100 µM (inactive)	49.7 µM (inactive)	68.2 µM (inactive)	67.1 µM (inactive)	
CC1(C)CN=C(Nc2ccc(F)cc2)S1	> 100 µM (inactive)		> 100 µM (inactive)	> 100 µM (inactive)	> 100 µM (inactive)	> 100 µM (inactive)	> 100 µM (inactive)	> 100 µM (inactive)	> 100 µM (inactive)	> 100 µM (inactive)	> 100 µM (inactive)	> 100 µM (inactive)	> 100 µM (inactive)	> 100 µM (inactive)	> 100 µM (inactive)	> 100 µM (inactive)	> 100 µM (inactive)	> 100 µM (inactive)	> 100 µM (inactive)	> 100 µM (inactive)
CN(C)c1nc(N(C)C)nc(N(C)C23CC4CC(CC(C4)C2)C3)n1		23.8 µM (inactive)	31.8 µM (inactive)	21 µM (inactive)	30.1 µM (inactive)			25.1 µM (inactive)	34.3 µM (inactive)	32 µM (inactive)	31.7 µM (inactive)			22.4 µM (inactive)	24 µM (inactive)	> 100 µM (inactive)	44.5 µM (inactive)	56.8 µM (inactive)		39.1 µM (inactive)
Oc1nncc2[nH]c(-c3ccccc3)cc12	17 µM (inactive)	34 µM (inactive)		38.9 µM (inactive)	52 µM (inactive)	36.4 µM (inactive)	39.4 µM (inactive)	29.6 µM (inactive)	30.5 µM (inactive)	21.9 µM (inactive)	> 100 µM (inactive)	66.1 µM (inactive)	71.9 µM (inactive)	36.7 µM (inactive)	61.5 µM (inactive)	25.2 µM (inactive)	35.1 µM (inactive)	33.9 µM (inactive)		46.5 µM (inactive)
CC(C)C/C=C/C1=NN(c2cccc(S(=O)(=O)O)c2)C2(C1)SCC(=O)N2c1nc2ccccc2s1 (stereo not drawn)	33.8 µM (inactive)	38.9 µM (inactive)	61.4 µM (inactive)		30.1 µM (inactive)	> 100 µM (inactive)	34.4 µM (inactive)	35.2 µM (inactive)	> 100 µM (inactive)	> 100 µM (inactive)	50 µM (inactive)	26.8 µM (inactive)	29.9 µM (inactive)	23.3 µM (inactive)		71.6 µM (inactive)	36.7 µM (inactive)	48.4 µM (inactive)	56.8 µM (inactive)	25.2 µM (inactive)
O=C1CCSC(=S)N1c1ccc(Br)c(Cl)c1	37.4 µM (inactive)	29 µM (inactive)	33 µM (inactive)		27.1 µM (inactive)	16.1 µM (inactive)	30.2 µM (inactive)	28.4 µM (inactive)	19.9 µM (inactive)	44.8 µM (inactive)	23.7 µM (inactive)	22 µM (inactive)	26 µM (inactive)	60.5 µM (inactive)	31.9 µM (inactive)	42.9 µM (inactive)	31.2 µM (inactive)	23.6 µM (inactive)	39 µM (inactive)	32 µM (inactive)
CC(=O)OCC1OC(Oc2cc(C)c(O)cc2C/C=C(\C)CC/C=C(\C)CC(=O)CC(C)C)C(O)C(OC(C)=O)C1OC(C)=O (stereo not drawn)	9.23 µM (inactive)	11.2 µM (inactive)		18 µM (inactive)	13.6 µM (inactive)	6 µM (inactive)	16.2 µM (inactive)	10.2 µM (inactive)	12.1 µM (inactive)	4.6 µM (inactive)	7.93 µM (inactive)	13 µM (inactive)	10.8 µM (inactive)	9.82 µM (inactive)	11.4 µM (inactive)	11.4 µM (inactive)	12.5 µM (inactive)	13 µM (inactive)	11.9 µM (inactive)	
